# Test system: Mouse primary astrocytes
# Assay: Proteome Profiler Mouse Cytokine Array of astrocyte culture supernatant
# Type: cell-based
# Conditions: RAC+BGE-105 [50 nM and 250 nM] versus RAC
# Protocol: To stimulate astrocytes into a reactive state found in aging and neurodegenerative diseases per previous publications (Liddelow et al., 2017; Barbar et al., 2020), a combination of the cytokines TNF-α and IL-1α, and complement factor C1q, were added at 30 ng/mL, 3 ng/mL, and 400 ng/mL, respectively, into astrocyte culture media to make ‘reactive astrocyte cocktail’ (RAC) media. […] Bachem, Cat. #4029110), BAY-11-7082 (50 μM; Abcam, Cat. #ab141228) or equal volume of vehicle (0.01% DMSO in PBS) (hereafter referred to as ‘RAC treatment’). […] To assess a panel of cytokines and chemokines, cell culture supernatant was diluted 1:10 and assayed using the Proteome Profiler Mouse Cytokine Array Kit, Panel A (R&D Systems, Cat. #ARY006) per manufacturer's protocol. Dot blots were analyzed in Fiji (Schindelin et al. 2012. Fiji: an open-source platform for biological-image analysis. Nat Methods 9, 676-682) and transcription factor enrichment was performed with Enrichr (Chen, et al. 2013. Enrichr: interactive and collaborative HTML5 gene list enrichment analysis tool. BMC Bioinformatics 14, 128).
smiles,measurement,value
"COc1cccc(OC)c1-n1c(NS(=O)(=O)[C@@H](C)[C@H](C)c2ncc(C)cn2)nnc1-c1cncc(C)c1 [BGE-105, (2S,3R)—N-(4-(2,6-dimethoxyphenyl)-5-(5-methyl-3-pyridinyl)-4H-1,2,4-triazol-3-yl)-3-(5-methyl-2-pyrimidinyl)-2-butanesulfonamide]",cytokine and chemokine release (array panel),significantly reduced

# Reference: patent US20240041878A1, “APELIN RECEPTOR MODULATORS FOR TREATMENT OF A DISORDER OR DISEASE ASSOCIATED WITH BBB PERMEABILITY” (BioAge Labs, Inc., priority 2022, published 2024)
